Assay results taken from ChEMBL document CHEMBL1201862, “PubChem BioAssay data set” (2004).
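96-well plates; 48 h exposure; 5 concentrations. Endpoints by linear interpolation between flanking doses. Not reached: highest tested concentration assigned. At the GI50, growth is halved.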 Calls of active or inactive are those of the source. No stated cut-off is given here; in the data, active = GI50 up to about 1.1 µM and inactive = higher.

Experiments:
Assay in all cases: DTP human tumour cell line panel, 48 h
COLO 205 = test system: COLO 205
NCI-H460 = test system: NCI-H460
CCRF-CEM = test system: CCRF-CEM
A498 = test system: A498
LOX IMVI = test system: LOX IMVI
CAKI-1 = test system: CAKI-1
786-0 = test system: 786-0
UACC-257 = test system: UACC-257
PC-3 = test system: PC-3
TK-10 = test system: TK-10
SK-MEL-5 = test system: SK-MEL-5
SW-620 = test system: SW-620
UO-31 = test system: UO-31
HOP-62 = test system: HOP-62
K562 = test system: K562
T47D = test system: T47D
MOLT-4 = test system: MOLT-4
OVCAR-8 = test system: OVCAR-8
SK-MEL-2 = test system: SK-MEL-2
IGROV-1 = test system: IGROV-1
NCI-H23 = test system: NCI-H23
NCI/ADR-RES = test system: NCI/ADR-RES
KM12 = test system: KM12
SNB-19 = test system: SNB-19
RXF 393 = test system: RXF 393
HCC 2998 = test system: HCC 2998
M14 = test system: M14
MDA-N = test system: MDA-N
HT-29 = test system: HT-29
MCF7 = test system: MCF7
HL-60 = test system: HL-60
HCT-116 = test system: HCT-116
SK-OV-3 = test system: SK-OV-3
DU-145 = test system: DU-145
U-251 = test system: U-251
Hs-578T = test system: Hs-578T
RPMI-8226 = test system: RPMI-8226
SF-295 = test system: SF-295
OVCAR-3 = test system: OVCAR-3
ACHN = test system: ACHN
HOP-92 = test system: HOP-92
SF-539 = test system: SF-539
A549 = test system: A549
HCT-15 = test system: HCT-15
SK-MEL-28 = test system: SK-MEL-28
OVCAR-4 = test system: OVCAR-4
NCI-H522 = test system: NCI-H522
MDA-MB-435 = test system: MDA-MB-435
NCI-H226 = test system: NCI-H226
Malme-3M = test system: Malme-3M
SN12C = test system: SN12C
SF-268 = test system: SF-268
SNB-75 = test system: SNB-75
MDA-MB-231 = test system: MDA-MB-231
EKVX = test system: EKVX
OVCAR-5 = test system: OVCAR-5
SR = test system: SR
UACC-62 = test system: UACC-62

SMILES: Cc1ccccc1C(=O)NC(O)(C(F)(F)F)C(F)(F)F
- GI50 (COLO 205): > 100 µM (inactive)
- GI50 (NCI-H460): 84.9 µM (inactive)
- GI50 (CCRF-CEM): 58.3 µM (inactive)
- GI50 (A498): > 100 µM (inactive)
- GI50 (LOX IMVI): > 100 µM (inactive)
- GI50 (CAKI-1): > 100 µM (inactive)
- GI50 (786-0): > 100 µM (inactive)
- GI50 (UACC-257): 61.9 µM (inactive)
- GI50 (PC-3): 25.5 µM (inactive)
- GI50 (TK-10): > 100 µM (inactive)
- GI50 (SK-MEL-5): 94 µM (inactive)
- GI50 (SW-620): > 100 µM (inactive)
- GI50 (UO-31): 34.8 µM (inactive)
- GI50 (HOP-62): > 100 µM (inactive)
- GI50 (K562): 57.9 µM (inactive)
- GI50 (T47D): 65.2 µM (inactive)
- GI50 (MOLT-4): 35.9 µM (inactive)
- GI50 (OVCAR-8): > 100 µM (inactive)
- GI50 (SK-MEL-2): 56.1 µM (inactive)
- GI50 (IGROV-1): > 100 µM (inactive)
- GI50 (NCI-H23): 78.2 µM (inactive)
- GI50 (NCI/ADR-RES): 70 µM (inactive)
- GI50 (KM12): 42.5 µM (inactive)
- GI50 (SNB-19): > 100 µM (inactive)
- GI50 (RXF 393): > 100 µM (inactive)
- GI50 (HCC 2998): > 100 µM (inactive)
- GI50 (M14): > 100 µM (inactive)
- GI50 (MDA-N): > 100 µM (inactive)
- GI50 (HT-29): 91.2 µM (inactive)
- GI50 (MCF7): > 100 µM (inactive)
- GI50 (HL-60): 54.7 µM (inactive)
- GI50 (HCT-116): > 100 µM (inactive)
- GI50 (SK-OV-3): > 100 µM (inactive)
- GI50 (DU-145): > 100 µM (inactive)
- GI50 (U-251): > 100 µM (inactive)
- GI50 (Hs-578T): 22.5 µM (inactive)
- GI50 (RPMI-8226): 49.1 µM (inactive)
- GI50 (SF-295): > 100 µM (inactive)
- GI50 (OVCAR-3): 35.1 µM (inactive)
- GI50 (ACHN): > 100 µM (inactive)
- GI50 (HOP-92): > 100 µM (inactive)
- GI50 (SF-539): > 100 µM (inactive)
- GI50 (A549): 82.4 µM (inactive)
- GI50 (HCT-15): > 100 µM
- GI50 (SK-MEL-28): > 100 µM (inactive)
- GI50 (OVCAR-4): 51.8 µM (inactive)
- GI50 (NCI-H522): 47 µM (inactive)
- GI50 (MDA-MB-435): > 100 µM (inactive)
- GI50 (NCI-H226): > 100 µM (inactive)
- GI50 (Malme-3M): 28.2 µM (inactive)
- GI50 (SN12C): > 100 µM (inactive)
- GI50 (SF-268): > 100 µM (inactive)
- GI50 (SNB-75): 0.0302 µM (active)
- GI50 (MDA-MB-231): > 100 µM (inactive)
- GI50 (EKVX): > 100 µM (inactive)
- GI50 (OVCAR-5): > 100 µM (inactive)

SMILES: NCCC(=O)NC(Cc1c[nH]cn1)C(=O)O (stereo unspecified)
- GI50 (COLO 205): > 100 µM (inactive)
- GI50 (NCI-H460): > 100 µM (inactive)
- GI50 (CCRF-CEM): > 100 µM (inactive)
- GI50 (LOX IMVI): > 100 µM (inactive)
- GI50 (CAKI-1): > 100 µM (inactive)
- GI50 (786-0): > 100 µM (inactive)
- GI50 (UACC-257): > 100 µM (inactive)
- GI50 (PC-3): > 100 µM (inactive)
- GI50 (TK-10): > 100 µM (inactive)
- GI50 (SK-MEL-5): > 100 µM (inactive)
- GI50 (SW-620): > 100 µM (inactive)
- GI50 (UO-31): > 100 µM (inactive)
- GI50 (HOP-62): > 100 µM (inactive)
- GI50 (K562): > 100 µM (inactive)
- GI50 (T47D): > 100 µM (inactive)
- GI50 (MOLT-4): > 100 µM (inactive)
- GI50 (OVCAR-8): > 100 µM (inactive)
- GI50 (SK-MEL-2): > 100 µM (inactive)
- GI50 (IGROV-1): > 100 µM (inactive)
- GI50 (NCI-H23): > 100 µM (inactive)
- GI50 (NCI/ADR-RES): > 100 µM (inactive)
- GI50 (KM12): > 100 µM (inactive)
- GI50 (SNB-19): > 100 µM (inactive)
- GI50 (HCC 2998): > 100 µM (inactive)
- GI50 (M14): > 100 µM (inactive)
- GI50 (MDA-N): > 100 µM (inactive)
- GI50 (HT-29): > 100 µM (inactive)
- GI50 (MCF7): > 100 µM (inactive)
- GI50 (HL-60): > 100 µM (inactive)
- GI50 (HCT-116): > 100 µM (inactive)
- GI50 (DU-145): > 100 µM (inactive)
- GI50 (U-251): > 100 µM (inactive)
- GI50 (Hs-578T): > 100 µM (inactive)
- GI50 (RPMI-8226): > 100 µM (inactive)
- GI50 (SF-295): > 100 µM (inactive)
- GI50 (OVCAR-3): > 100 µM (inactive)
- GI50 (ACHN): > 100 µM (inactive)
- GI50 (HOP-92): > 100 µM (inactive)
- GI50 (SF-539): > 100 µM (inactive)
- GI50 (A549): > 100 µM (inactive)
- GI50 (HCT-15): > 100 µM
- GI50 (SK-MEL-28): > 100 µM (inactive)
- GI50 (OVCAR-4): > 100 µM (inactive)
- GI50 (NCI-H522): > 100 µM (inactive)
- GI50 (MDA-MB-435): > 100 µM (inactive)
- GI50 (NCI-H226): > 100 µM (inactive)
- GI50 (Malme-3M): > 100 µM (inactive)
- GI50 (SN12C): > 100 µM (inactive)
- GI50 (SF-268): > 100 µM (inactive)
- GI50 (SNB-75): > 100 µM (inactive)
- GI50 (MDA-MB-231): > 100 µM (inactive)
- GI50 (EKVX): > 100 µM (inactive)
- GI50 (OVCAR-5): > 100 µM (inactive)

SMILES: CN(C)CCNc1nc2c(no[n+]2[O-])c2ccccc12.[O-][Cl+3]([O-])([O-])O
- GI50 (COLO 205): 16.9 µM (inactive)
- GI50 (NCI-H460): 19.5 µM (inactive)
- GI50 (CCRF-CEM): 30.3 µM (inactive)
- GI50 (A498): 13.7 µM (inactive)
- GI50 (LOX IMVI): 16.8 µM (inactive)
- GI50 (CAKI-1): 26.1 µM (inactive)
- GI50 (786-0): 18.7 µM (inactive)
- GI50 (UACC-257): 16.8 µM (inactive)
- GI50 (PC-3): 28 µM (inactive)
- GI50 (TK-10): 24.9 µM (inactive)
- GI50 (SK-MEL-5): 15.2 µM (inactive)
- GI50 (SW-620): 11.1 µM (inactive)
- GI50 (UO-31): 19.5 µM (inactive)
- GI50 (HOP-62): 13 µM (inactive)
- GI50 (K562): 28.8 µM (inactive)
- GI50 (T47D): 57.9 µM (inactive)
- GI50 (MOLT-4): 32.4 µM (inactive)
- GI50 (OVCAR-8): 14.6 µM (inactive)
- GI50 (SK-MEL-2): 19.4 µM (inactive)
- GI50 (IGROV-1): 18 µM (inactive)
- GI50 (NCI-H23): 34.4 µM (inactive)
- GI50 (NCI/ADR-RES): 31.2 µM (inactive)
- GI50 (KM12): 21.1 µM (inactive)
- GI50 (SNB-19): 20.7 µM (inactive)
- GI50 (RXF 393): 17.5 µM (inactive)
- GI50 (HCC 2998): 28.2 µM (inactive)
- GI50 (M14): 15.7 µM (inactive)
- GI50 (MDA-N): 28.9 µM (inactive)
- GI50 (HT-29): 27.6 µM (inactive)
- GI50 (MCF7): 19.7 µM (inactive)
- GI50 (HCT-116): 12.4 µM (inactive)
- GI50 (SK-OV-3): 32.1 µM (inactive)
- GI50 (DU-145): 6.19 µM (inactive)
- GI50 (U-251): 31.5 µM (inactive)
- GI50 (Hs-578T): 40.6 µM (inactive)
- GI50 (RPMI-8226): 52.7 µM (inactive)
- GI50 (SF-295): 28 µM (inactive)
- GI50 (OVCAR-3): 30.8 µM (inactive)
- GI50 (SR): 15.1 µM (inactive)
- GI50 (ACHN): 13.8 µM (inactive)
- GI50 (HOP-92): 22.1 µM (inactive)
- GI50 (SF-539): 11.5 µM (inactive)
- GI50 (A549): 16.7 µM (inactive)
- GI50 (HCT-15): 18 µM
- GI50 (SK-MEL-28): 18.5 µM (inactive)
- GI50 (OVCAR-4): 30.4 µM (inactive)
- GI50 (NCI-H522): 24.4 µM (inactive)
- GI50 (MDA-MB-435): 18 µM (inactive)
- GI50 (NCI-H226): 16.1 µM (inactive)
- GI50 (Malme-3M): 22.5 µM (inactive)
- GI50 (SN12C): 25.6 µM (inactive)
- GI50 (UACC-62): 21 µM (inactive)
- GI50 (SF-268): 4.42 µM (inactive)
- GI50 (SNB-75): 23.7 µM (inactive)
- GI50 (MDA-MB-231): 14.8 µM (inactive)
- GI50 (EKVX): 26.1 µM (inactive)
- GI50 (OVCAR-5): 38 µM (inactive)
